# Assay results as given in ChEMBL document CHEMBL1155125 (Bioorg Med Chem Lett, 2008).
# Key:
# [1] = test system: Cystic fibrosis transmembrane conductance regulator (Homo sapiens), P13569 [F508del]; assay: Agonist activity at CFTR-deltaF508 mutant expressed in NIH3T3 cells assessed as increase in forskolin-stimulated current at 30 uM by whole cell assay relative to control; type: functional, cell-based
# [2] = test system: Cystic fibrosis transmembrane conductance regulator (Homo sapiens), P13569 [K1250A]; assay: Agonist activity at CFTR-K1250A mutant assessed as increase in forskolin-stimulated current at 5 uM; type: functional
# [3] = test system: Cystic fibrosis transmembrane conductance regulator (Homo sapiens), P13569 [F508del]; assay: Agonist activity at CFTR-deltaF508 mutant expressed in NIH3T3 cells assessed as increase in forskolin-stimulated current at 20 uM by whole cell assay relative to control; type: functional, cell-based
# [4] = test system: Cystic fibrosis transmembrane conductance regulator (Homo sapiens), P13569 [F508del]; assay: Agonist activity at CFTR-deltaF508 mutant expressed in NIH3T3 cells assessed as increase in forskolin-stimulated current at 30 uM by whole cell assay relative to genistein; type: functional, cell-based
# [5] = molecular target: Cystic fibrosis transmembrane conductance regulator (Homo sapiens, UniProt P13569, F508DEL); assay: Agonist activity at CFTR-deltaF508 mutant expressed in NIH3T3 cells assessed as increase in forskolin-stimulated current; type: functional, cell-based
# Chain of Cystic fibrosis transmembrane conductance regulator (P13569 as listed by the source): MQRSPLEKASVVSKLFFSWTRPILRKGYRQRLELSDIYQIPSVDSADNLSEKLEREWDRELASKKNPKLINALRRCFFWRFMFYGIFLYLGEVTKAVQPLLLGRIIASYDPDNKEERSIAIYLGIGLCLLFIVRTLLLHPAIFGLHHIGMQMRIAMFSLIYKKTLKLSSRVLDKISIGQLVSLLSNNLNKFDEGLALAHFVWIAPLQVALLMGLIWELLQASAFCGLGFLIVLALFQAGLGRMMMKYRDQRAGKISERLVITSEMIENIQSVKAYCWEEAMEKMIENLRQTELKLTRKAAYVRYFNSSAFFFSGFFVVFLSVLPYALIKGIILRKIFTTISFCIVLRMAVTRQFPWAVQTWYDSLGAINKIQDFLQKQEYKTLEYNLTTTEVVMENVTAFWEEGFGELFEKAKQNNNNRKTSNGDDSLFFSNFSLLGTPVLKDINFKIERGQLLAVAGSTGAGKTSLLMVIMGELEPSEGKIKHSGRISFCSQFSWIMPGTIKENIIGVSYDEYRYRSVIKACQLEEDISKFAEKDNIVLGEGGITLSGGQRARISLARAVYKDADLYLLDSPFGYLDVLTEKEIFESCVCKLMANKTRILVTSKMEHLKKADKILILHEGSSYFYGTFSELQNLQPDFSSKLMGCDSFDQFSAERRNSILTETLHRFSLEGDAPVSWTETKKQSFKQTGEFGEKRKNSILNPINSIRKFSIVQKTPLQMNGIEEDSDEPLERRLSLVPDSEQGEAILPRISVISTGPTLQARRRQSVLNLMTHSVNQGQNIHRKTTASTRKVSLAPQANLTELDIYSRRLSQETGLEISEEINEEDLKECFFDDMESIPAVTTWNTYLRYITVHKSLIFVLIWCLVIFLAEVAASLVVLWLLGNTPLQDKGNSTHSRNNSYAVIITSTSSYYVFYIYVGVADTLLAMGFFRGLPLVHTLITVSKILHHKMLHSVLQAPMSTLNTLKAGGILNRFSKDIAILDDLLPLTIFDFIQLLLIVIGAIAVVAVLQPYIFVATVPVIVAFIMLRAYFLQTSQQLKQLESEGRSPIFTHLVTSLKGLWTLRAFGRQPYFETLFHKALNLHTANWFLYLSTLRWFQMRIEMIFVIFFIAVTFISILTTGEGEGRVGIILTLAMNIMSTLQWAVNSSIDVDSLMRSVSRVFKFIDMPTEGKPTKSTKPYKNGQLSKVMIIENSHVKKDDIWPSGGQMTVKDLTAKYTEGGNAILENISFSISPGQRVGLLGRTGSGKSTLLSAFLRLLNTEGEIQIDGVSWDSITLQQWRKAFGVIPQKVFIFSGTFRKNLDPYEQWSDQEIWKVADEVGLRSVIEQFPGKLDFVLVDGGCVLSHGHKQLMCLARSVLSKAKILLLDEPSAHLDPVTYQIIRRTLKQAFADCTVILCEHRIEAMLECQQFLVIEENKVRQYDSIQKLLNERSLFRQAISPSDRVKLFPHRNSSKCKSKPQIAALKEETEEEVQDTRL
# Chain of Cystic fibrosis transmembrane conductance regulator (Homo sapiens), P13569 [F508del] (P13569 as listed by the source): as above
# Chain of Cystic fibrosis transmembrane conductance regulator (Homo sapiens), P13569 [K1250A] (P13569 whole entry K1250A): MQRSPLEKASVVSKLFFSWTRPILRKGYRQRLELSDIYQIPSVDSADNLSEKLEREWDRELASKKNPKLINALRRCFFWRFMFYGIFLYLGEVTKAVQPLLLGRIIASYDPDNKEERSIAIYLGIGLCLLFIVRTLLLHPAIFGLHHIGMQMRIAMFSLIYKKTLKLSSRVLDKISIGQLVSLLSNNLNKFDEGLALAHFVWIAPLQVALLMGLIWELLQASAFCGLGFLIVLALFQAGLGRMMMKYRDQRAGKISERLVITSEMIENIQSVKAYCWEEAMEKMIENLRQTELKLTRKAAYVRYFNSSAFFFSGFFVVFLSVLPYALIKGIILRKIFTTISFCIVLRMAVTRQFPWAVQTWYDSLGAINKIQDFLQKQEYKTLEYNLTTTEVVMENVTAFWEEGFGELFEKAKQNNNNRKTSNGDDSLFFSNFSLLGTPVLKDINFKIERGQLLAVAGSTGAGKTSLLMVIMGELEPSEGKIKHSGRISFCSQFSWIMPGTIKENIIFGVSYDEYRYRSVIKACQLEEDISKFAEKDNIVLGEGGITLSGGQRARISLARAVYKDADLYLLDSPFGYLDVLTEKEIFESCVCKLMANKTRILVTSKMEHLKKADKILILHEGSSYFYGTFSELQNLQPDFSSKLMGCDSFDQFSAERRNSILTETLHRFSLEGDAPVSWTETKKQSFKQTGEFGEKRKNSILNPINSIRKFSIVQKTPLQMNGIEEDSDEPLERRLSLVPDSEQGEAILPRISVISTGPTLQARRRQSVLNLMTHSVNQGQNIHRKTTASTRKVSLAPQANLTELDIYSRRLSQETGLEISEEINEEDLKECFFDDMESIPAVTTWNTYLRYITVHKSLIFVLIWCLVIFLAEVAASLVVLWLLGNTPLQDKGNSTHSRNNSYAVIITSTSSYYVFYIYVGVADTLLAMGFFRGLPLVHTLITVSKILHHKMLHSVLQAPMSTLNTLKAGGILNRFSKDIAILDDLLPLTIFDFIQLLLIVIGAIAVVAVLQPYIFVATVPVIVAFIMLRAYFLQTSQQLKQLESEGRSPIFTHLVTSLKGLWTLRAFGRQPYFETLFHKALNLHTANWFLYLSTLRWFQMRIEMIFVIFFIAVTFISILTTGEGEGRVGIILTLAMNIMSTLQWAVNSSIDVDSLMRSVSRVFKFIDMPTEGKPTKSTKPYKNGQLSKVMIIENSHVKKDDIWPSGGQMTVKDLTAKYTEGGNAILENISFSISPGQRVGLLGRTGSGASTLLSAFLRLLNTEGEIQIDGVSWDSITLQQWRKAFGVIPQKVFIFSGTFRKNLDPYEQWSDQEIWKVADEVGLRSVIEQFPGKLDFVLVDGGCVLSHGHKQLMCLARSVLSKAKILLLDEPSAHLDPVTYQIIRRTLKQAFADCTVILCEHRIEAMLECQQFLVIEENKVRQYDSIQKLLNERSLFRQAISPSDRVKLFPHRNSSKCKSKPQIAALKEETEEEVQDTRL
smiles,measurement,setting,value
O=c1cc(-c2ccncc2)oc2c1ccc1ccccc12,fold change (FC),[1],3.76
same,fold change (FC),[2],1.11
same,fold change (FC),[3],3.69
same,Activity,[4],31%
same,EC50,[5],3.5 µM
O=c1c(-c2ccc(O)cc2)coc2cc(O)cc(O)c12,fold change (FC),[3],8.29
